Values after ≈ are worked out from the molar mass of the structure shown. Where two headings read alike, the source gives them in different places.
Tests used:
Experiment in all cases: MIC, broth micro dilution assay (NCCLS)
Format in all cases: cell-based
[1] = test system: Enterococcus faecalis A20688
[2] = test system: Streptococcus pneumoniae A28272
[3] = test system: Staphylococcus aureus A15090
[4] = Mueller-Hinton medium, 35° C., 18 hours
[5] = 50% Mueller-Hinton medium and 50% Todd Hewitt medium, 35° C., 18 hours

Row | SMILES | MIC (μg/mL) against Enterococcus faecalis A20688 [1, 4] | MIC (μg/mL) against Streptococcus pneumoniae A28272 [2, 5] | MIC (μg/mL) against Staphylococcus aureus A15090 [3, 4] | MIC (μg/mL) against Enterococcus faecalis A20688 [1] | MIC (μg/mL) against Streptococcus pneumoniae A28272 [2] | MIC (μg/mL) against Staphylococcus aureus A15090 [3] | other results
1 | CO/C(C)=C1/NC(=O)C(C(C)O)NC(=O)c2csc(n2)-c2cc(O)c(-c3nc(C(=O)NC(CN(C)CCc4ccccn4)C(N)=O)cs3)nc2-c2csc(n2)C2COC(=O)c3c4c5c(cccc5n3O)COC(=O)C(O[C@H]3C[C@](C)(O)[C@H](N(C)C)[C@H](C)O3)C(OC4)C(NC(=O)c3csc1n3)c1nc(cs1)C(=O)N2 (stereo partly drawn) [Example 20] | 0.25 µg/mL (≈ 0.159 µM) | 0.005 µg/mL (≈ 0.00318 µM) | 0.125 µg/mL (≈ 0.0794 µM) | – | – | – | –
2 | CCN(CC)CCS(=O)(=O)CC(NC(=O)c1csc(-c2nc3c(cc2O)-c2nc(cs2)C(=O)NC(C(C)O)C(=O)N/C(=C(\C)OC)c2nc(cs2)C(=O)NC2c4nc(cs4)C(=O)NC(COC(=O)c4c5c6c(cccc6n4O)COC(=O)C(O[C@H]4C[C@](C)(O)C(N(C)C)[C@H](C)O4)C2OC5)c2nc-3cs2)n1)C(N)=O (stereo partly drawn) [Example 103] | – | – | – | – | – | – | MIC ([1]; Enterococcus faecalis, A20688, 18 h, read-out: MIC (μg/mL) against Enterococcus faecalis A20688): 0.03 µg/mL (≈ 0.0187 µM); MIC ([2]; Streptococcus pneumoniae, A28272, 18 h, read-out: MIC (μg/mL) against Streptococcus pneumoniae A28272): 0.007 µg/mL (≈ 0.00437 µM); MIC ([3]; Staphylococcus aureus, A15090, 18 h, read-out: MIC (μg/mL) against Staphylococcus aureus A15090): 0.06 µg/mL (≈ 0.0374 µM)
3 | COC(C)=C1NC(=O)C(C(C)O)NC(=O)c2csc(n2)-c2cc(O)c(-c3nc(C(=O)NC(CSCC(NC(C)=O)C(=O)O)C(N)=O)cs3)nc2-c2csc(n2)C2COC(=O)c3c4c5c(cccc5n3O)COC(=O)C(OC3CC(C)(O)C(N(C)C)C(C)O3)C(OC4)C(NC(=O)c3csc1n3)c1nc(cs1)C(=O)N2 (stereo not drawn) [Example 43] | 8.0 µg/mL (≈ 5 µM) | 0.125 µg/mL (≈ 0.0781 µM) | 2.0 µg/mL (≈ 1.25 µM) | – | – | – | –
4 | COC(C)=C1NC(=O)C(C(C)O)NC(=O)c2csc(n2)-c2cc(O)c(-c3nc(C(=O)NC(CN(C)C(=O)CCC(=O)O)C(N)=O)cs3)nc2-c2csc(n2)C2COC(=O)c3c4c5c(cccc5n3O)COC(=O)C(OC3CC(C)(O)C(N(C)C)C(C)O3)C(OC4)C(NC(=O)c3csc1n3)c1nc(cs1)C(=O)N2 (stereo not drawn) [Example 106] | 32 µg/mL (≈ 20.4 µM) | 8.0 µg/mL (≈ 5.1 µM) | 4.0 µg/mL (≈ 2.55 µM) | – | – | – | –
5 | CO/C(C)=C1/NC(=O)C(C(C)O)NC(=O)c2csc(n2)-c2cc(O)c(-c3nc(C(=O)NC(CN4CCCC4)C(N)=O)cs3)nc2-c2csc(n2)C2COC(=O)c3c4c5c(cccc5n3O)COC(=O)C(O[C@H]3C[C@](C)(O)[C@H](N(C)C)[C@H](C)O3)C(OC4)C(NC(=O)c3csc1n3)c1nc(cs1)C(=O)N2 (stereo partly drawn) [Example 15] | – | – | – | 0.5 µg/mL (≈ 0.331 µM) | 0.015 µg/mL (≈ 0.00994 µM) | 0.06 µg/mL (≈ 0.0398 µM) | –
6 | COC(C)=C1NC(=O)C(C(C)O)NC(=O)c2csc(n2)-c2cc(O)c(-c3nc(C(=O)NC(CN4CCCC4C(C)O)C(N)=O)cs3)nc2-c2csc(n2)C2COC(=O)c3c4c5c(cccc5n3O)COC(=O)C(OC3CC(C)(O)C(N(C)C)C(C)O3)C(OC4)C(NC(=O)c3csc1n3)c1nc(cs1)C(=O)N2 (stereo not drawn) [Example 88] | 0.06 µg/mL (≈ 0.0386 µM) | 0.03 µg/mL (≈ 0.0193 µM) | 0.007 µg/mL (≈ 0.00451 µM) | – | – | – | –
7 | COC(C)=C1NC(=O)C(C(C)O)NC(=O)c2csc(n2)-c2cc(O)c(-c3nc(C(=O)NC(CN4CCN(Cc5cc(OC)c(OC)c(OC)c5)CC4)C(N)=O)cs3)nc2-c2csc(n2)C2COC(=O)c3c4c5c(cccc5n3O)COC(=O)C(OC3CC(C)(O)C(N(C)C)C(C)O3)C(OC4)C(NC(=O)c3csc1n3)c1nc(cs1)C(=O)N2 (stereo not drawn) [Example 71] | – | – | – | 2.0 µg/mL (≈ 1.17 µM) | 0.5 µg/mL (≈ 0.293 µM) | 1.0 µg/mL (≈ 0.587 µM) | –
8 | CCN(CC)CCN(CCN(CC)CC)CC(NC(=O)c1csc(-c2nc3c(cc2O)-c2nc(cs2)C(=O)NC(C(C)O)C(=O)N/C(=C(\C)OC)c2nc(cs2)C(=O)NC2c4nc(cs4)C(=O)NC(COC(=O)c4c5c6c(cccc6n4O)COC(=O)C(O[C@H]4C[C@](C)(O)[C@H](N(C)C)[C@H](C)O4)C2OC5)c2nc-3cs2)n1)C(N)=O (stereo partly drawn) [Example 24] | – | – | – | 2.0 µg/mL (≈ 1.21 µM) | 0.007 µg/mL (≈ 0.00423 µM) | 1.0 µg/mL (≈ 0.605 µM) | –
9 | CO/C(C)=C1/NC(=O)C(C(C)O)NC(=O)c2csc(n2)-c2cc(O)c(-c3nc(C(=O)NC(CN4CCN(CCN(C)C)CC4)C(N)=O)cs3)nc2-c2csc(n2)C2COC(=O)c3c4c5c(cccc5n3O)COC(=O)C(O[C@H]3C[C@](C)(O)[C@H](N(C)C)[C@H](C)O3)C(OC4)C(NC(=O)c3csc1n3)c1nc(cs1)C(=O)N2 (stereo partly drawn) [Example 54] | – | – | – | 0.125 µg/mL (≈ 0.0784 µM) | 0.25 µg/mL (≈ 0.157 µM) | 0.5 µg/mL (≈ 0.314 µM) | –
10 | CO/C(C)=C1/NC(=O)C(C(C)O)NC(=O)c2csc(n2)-c2cc(O)c(-c3nc(C(=O)NC(CNCc4nn[nH]n4)C(N)=O)cs3)nc2-c2csc(n2)C2COC(=O)c3c4c5c(cccc5n3O)COC(=O)C(O[C@H]3C[C@](C)(O)[C@H](N(C)C)[C@H](C)O3)C(OC4)C(NC(=O)c3csc1n3)c1nc(cs1)C(=O)N2 (stereo partly drawn) [Example 50] | – | – | – | 1.0 µg/mL (≈ 0.651 µM) | 0.25 µg/mL (≈ 0.163 µM) | 0.25 µg/mL (≈ 0.163 µM) | –

Reference: patent US20020065219A1, “Water soluble thiazolyl peptide derivatives” (priority 2000, published 2002)
